Source: patent publication US20240252506A1 (Hoffmann-La Roche Inc., priority 2021, published 2024)
≈ marks a conversion by molar mass, not a printed value. Counter-ions that a name gives are not always drawn.

Test system: Escherichia coli ATCC 25922
Assay: Minimal Inhibitory Concentration (MIC) determination, broth microdilution (CLSI M07-A10)
Type: cell-based
Details: Escherichia coli, ATCC25922, read-out: Escherichia coli growth inhibition MIC, strain Escherichia coli ATCC 25922, 18-24 hours at 35±2° C., lowest concentration for complete growth inhibition (no visible growth)
Description: Minimal Inhibitory Concentration (MIC) Determination:
The MIC of antibacterial compounds against multiple species and strains was determined using the broth microdilution method according to M07-A10 Clinical and Laboratory Standards Institute (CLSI) guidelines, using the appropriate broth medium. In short, the compound plates were prepared by dispensing 100 μL of each stock solution in the first well of a 96 well microtiter plate (MTP) at a concentration 100-fold higher than the final concentration desired in broth. Eleven serial 2-fold dilutions of the highest concentration were made in DMSO for new compounds and in water (or appropriate solution) for reference compounds [2]. 1 μL of each well was transferred in a new MTP, which served as the test plate by subsequent inoculation. This bacterial suspension was prepared from strains that were first sub-cultured on agar plates and incubated for 18-24 hours as appropriate. Following incubation, the inoculum was prepared from isolated colonies and adjusted to 0.5 McFarland turbidity standard (1 to 2×10^8 Colony Forming Units (CFU)/mL) in 0.9% saline. The bacterial suspension was then diluted 1:200 in appropriate sterile medium and within 15 minutes 100 μL/well were dispensed. Negative controls (lack of bacterial cells) and growth control wells (lack of compound) were included in all plates. MTPs were incubated for 18-24 hours at 35±2° C. in ambient air. The MIC value of each compound, expressed as μg/mL, was determined as the lowest concentration required for complete growth inhibition (no visible growth). • [1] CLSI (2015) Methods for dilution antimicrobial susceptibility tests for bacteria that grow aerobically; Approved Standard, Tenth Edition. CLSI Document M7-A10 (ISBN 1-56238-987-4). Wayne, PA: Clinical and Laboratory Standards Institute, 19087, USA. • [2] CLSI (2017) Performance Standards for Antimicrobial Susceptibility Testing; Twenty-Fifth Informational Supplement. CLSI Document M100-S27, CLSI, Wayne, Pennsylvania 19087, USA.
Table 1 provides the Minimal Inhibitory Concentrations (MIC) in micrograms per millilitre of the compounds of present invention obtained against the strain Escherichia coli ATCC 25922.

| SMILES | MIC |
| --- | --- |
| C[C@H](N)Cn1nc2c(F)c3c(c(F)c2n1)CC(CN1CCC2(CC1)CN(c1cnc4c(n1)NC(=O)CO4)C(=O)O2)C3 [Example 123, 6-[8-[[2-[(2S)-2-aminopropyl]-4,8-difluoro-6,7-dihydro-5H-cyclopenta[f]benzotriazol-6-yl]methyl]-2-oxo-1-oxa-3,8-diazaspiro[4.5]decan-3-yl]-4H-pyrazino[2,3-b][1,4]oxazin-3-one; formic acid] | 0.125 µg/mL (≈ 0.219 µM) |

Same assay, conditions: Escherichia coli, ATCC25922, strain Escherichia coli ATCC 25922, 18-24 hours at 35±2° C., lowest concentration for complete growth inhibition (no visible growth), read-out: Escherichia coli growth inhibition MIC

| MIC | SMILES |
| --- | --- |
| 0.25 µg/mL (≈ 0.44 µM) | CNCc1nc2c(F)c3c(c(F)c2n1C)CC(CN1CCC2(CC1)CN(c1cnc4c(n1)NC(=O)CO4)C(=O)O2)C3 (stereo not shown) [Example 33, 6-[8-[[4,8-difluoro-1-methyl-2-(methylaminomethyl)-6,7-dihydro-5H-cyclopenta[f]benzimidazol-6-yl]methyl]-2-oxo-1-oxa-3,8-diazaspiro[4.5]decan-3-yl]-4H-pyrazino[2,3-b][1,4]oxazin-3-one] |
| 0.125 µg/mL (≈ 0.239 µM) | NCc1nc2cc3c(c(F)c2o1)CC(CN1CCC2(CC1)CN(c1cnc4c(n1)NC(=O)CO4)C(=O)O2)C3 (single isomer, unassigned) [Example 104, 6-[2-oxo-8-[[2-(aminomethyl)-8-fluoro-6,7-dihydro-5H-cyclopenta[f][1,3]benzoxazol-6-yl]methyl]-1-oxa-3,8-diazaspiro[4.5]decan-3-yl]-4H-pyrazino[2,3-b][1,4]oxazin-3-one] |
| 0.125 µg/mL | O=C(O)C(F)(F)F.O=C1COc2ncc(N3CC4(CCN(CC5Cc6c(c(F)c7[nH]c([C@H]8NCC[C@@H]8O)nc7c6F)C5)CC4)OC3=O)nc2N1 [Example 54, 6-[8-[[4,8-difluoro-2-[(2R,3S)-3-hydroxypyrrolidin-2-yl]-3,5,6,7-tetrahydrocyclopenta[f]benzimidazol-6-yl]methyl]-2-oxo-1-oxa-3,8-diazaspiro[4.5]decan-3-yl]-4H-pyrazino[2,3-b][1,4]oxazin-3-one; 2,2,2-trifluoroacetic acid] |
| 0.125 µg/mL (≈ 0.233 µM) | C[C@H](N)c1nc2cc3c(c(F)c2o1)CC(CN1CCC2(CC1)CN(c1cnc4c(n1)NC(=O)CO4)C(=O)O2)C3 (stereo partly drawn) [Example 97, 6-[8-[[2-[(1S)-1-aminoethyl]-8-fluoro-6,7-dihydro-5H-cyclopenta[f][1,3]benzoxazol-6-yl]methyl]-2-oxo-1-oxa-3,8-diazaspiro[4.5]decan-3-yl]-4H-pyrazino[2,3-b][1,4]oxazin-3-one] |
| 0.25 µg/mL | C[C@H](N)Cn1nnc2c(F)c3c(c(F)c21)CC(CN1CCC2(CC1)CN(c1cnc4c(n1)NC(=O)CO4)C(=O)O2)C3.Cl (single isomer, unassigned) [Example 130] |
| 2 µg/mL (≈ 3.63 µM) | Cc1nc2c(F)c3c(cc2n1CCN)CC(CN1CCC2(CC1)CN(c1cnc4c(n1)NC(=O)CO4)C(=O)O2)C3 (stereo not shown) [Example 73, 6-[8-[[3-(2-Aminoethyl)-8-fluoro-2-methyl-6,7-dihydro-5H-cyclopenta[f]benzimidazol-6-yl]methyl]-2-oxo-1-oxa-3,8-diazaspiro[4.5]decan-3-yl]-4H-pyrazino[2,3-b][1,4]oxain-3-one] |
| 0.25 µg/mL (≈ 0.383 µM) | O=C1COc2ncc(N3CC4(CCN(CC5Cc6c(c(F)c7nn(CCNC(=O)[C@H]8CCCN8)nc7c6F)C5)CC4)OC3=O)nc2N1 [Example 158, (2R)—N-[2-[4,8-Difluoro-6-[[2-oxo-3-(3-oxo-4H-pyrazino[2,3-b][1,4]oxazin-6-yl)-1-oxa-3,8-diazaspiro[4.5]decan-8-yl]methyl]-6,7-dihydro-5H-cyclopenta[f]benzotriazol-2-yl]ethyl]pyrrolidine-2-carboxamide] |
| 0.5 µg/mL | CNCC(=O)NCc1nc2cc3c(c(F)c2[nH]1)CC(CN1CCC2(CC1)CN(c1cnc4c(n1)NC(=O)CO4)C(=O)O2)C3.O=C(O)C(F)(F)F (stereo not shown) [Example 160, N-[[8-fluoro-6-[[2-oxo-3-(3-oxo-4H-pyrazino[2,3-b][1,4]oxazin-6-yl)-1-oxa-3,8-diazaspiro[4.5]decan-8-yl]methyl]-1,5,6,7-tetrahydrocyclopenta[f]benzimidazol-2-yl]methyl]-2-(methylamino)acetamide; 2,2,2-trifluoroacetic acid] |
| 0.125 µg/mL (≈ 0.233 µM) | C[C@@H](N)c1nc2cc3c(c(F)c2o1)CC(CN1CCC2(CC1)CN(c1cnc4c(n1)NC(=O)CO4)C(=O)O2)C3 (stereo partly drawn) [Example 90, 6-[8-[[2-[(1R)-1-aminoethyl]-8-fluoro-6,7-dihydro-5H-cyclopenta[f][1,3]benzoxazol-6-yl]methyl]-2-oxo-1-oxa-,38-diazaspiro[4.5]decan-3-yl]-4H-pyrazino[2,3-b][1,4]oxazin-3-one] |
| 1 µg/mL (≈ 1.6 µM) | CN(CCn1nnc2c(F)c3c(c(F)c21)CC(CN1CCC2(CC1)CN(c1cnc4c(n1)NC(=O)CO4)C(=O)O2)C3)C(=O)CN (single isomer, unassigned) [Example 166, 2-Amino-N-methyl-N-[2-[4,8-difluoro-6-[[2-oxo-3-(3-oxo-4H-pyrazino[2,3-b][1,4]oxazin-6-yl)-1-oxa-3,8-diazaspiro[4.5]decan-8-yl]methyl]-6,7-dihydro-5H-cyclopenta[f]benzotriazol-1-yl]ethyl]acetamide] |
| 0.125 µg/mL (≈ 0.22 µM) | CC(C)(N)c1nc2c(F)c3c(c(F)c2[nH]1)CC(CN1CCC2(CC1)CN(c1cnc4c(n1)NC(=O)CO4)C(=O)O2)C3 [Example 30, 6-[8-[[2-(1-amino-1-methyl-ethyl)-4,8-difluoro-3,5,6,7-tetrahydrocyclopenta[f]benzimidazol-6-yl]methyl]-2-oxo-1-oxa-3,8-diazaspiro[4.5]decan-3-yl]-4H-pyrazino[2,3-b][1,4]oxazin-3-one] |
| 0.125 µg/mL (≈ 0.215 µM) | O=C1COc2ncc(N3CC4(CCN(CC5Cc6c(c(F)c7[nH]c([C@H]8CCCN8)nc7c6F)C5)CC4)OC3=O)nc2N1 [Example 24, 6-[8-[[4,8-difluoro-2-[(2R)-pyrrolidin-2-yl]-3,5,6,7-tetrahydrocyclopenta[f]benzimidazol-6-yl]methyl]-2-oxo-1-oxa-3,8-diazaspiro[4.5]decan-3-yl]-4H-pyrazino[2,3-b][1,4]oxazin-3-one] |
| 0.5 µg/mL (≈ 0.863 µM) | O=C1COc2ncc(N3CC4(CCN(CC5Cc6cc7nc([C@@H]8C[C@@H](O)CN8)oc7c(F)c6C5)CC4)OC3=O)nc2N1 (single isomer, unassigned) [Example 141] |
| ≤ 0.06 µg/mL | NCCn1nnc2c(F)c3c(c(F)c21)CC(CN1CCC2(CC1)CN(c1cnc4c(n1)NC(=O)CO4)C(=O)O2)C3 (stereo not shown) [Example 42, 6-[8-[[1-(2-aminoethyl)-4,8-difluoro-6,7-dihydro-5H-cyclopenta[f]benzotriazol-6-yl]methyl]-2-oxo-1-oxa-3,8-diazaspiro[4.5]decan-3-yl]-4H-pyrazino[2,3-b][1,4]oxazin-3-one] |

Same assay, conditions: strain Escherichia coli ATCC 25922, 18-24 hours at 35±2° C., lowest concentration for complete growth inhibition (no visible growth)

| Escherichia coli growth inhibition MIC | SMILES |
| --- | --- |
| 2 µg/mL | CN(C)CC(=O)N(C)CCn1nnc2c(F)c3c(c(F)c21)CC(CN1CCC2(CC1)CN(c1cnc4c(n1)NC(=O)CO4)C(=O)O2)C3 (single isomer, unassigned) [Example 153, N-[2-[4,8-difluoro-6-[[2-oxo-3-(3-oxo-4H-pyrazino[2,3-b][1,4]oxazin-6-yl)-1-oxa-3,8-diazaspiro[4.5]decan-8-yl]methyl]-6,7-dihydro-5H-cyclopenta[f]benzotriazol-1-yl]ethyl]-2-(dimethylamino)-N-methyl-acetamide] |
| 1 µg/mL | N[C@H]1COC[C@@H]1c1nc2cc3c(c(F)c2o1)CC(CN1CCC2(CC1)CN(c1cnc4c(n1)NC(=O)CO4)C(=O)O2)C3 (stereo partly drawn) [Example 139, 6-[8-[[2-[(3R,4R)-4-Aminotetrahydrofuran-3-yl]-8-fluoro-6,7-dihydro-5H-cyclopenta[f][1,3]benzoxazol-6-yl]methyl]-2-oxo-1-oxa-3,8-diazaspiro[4.5]decan-3-yl]-4H-pyrazino[2,3-b][1,4]oxazin-3-one] |
| 0.5 µg/mL | O=C1COc2ncc(N3CC4(CCN(CC5Cc6cc7nc([C@@H]8C[C@@H](O)CN8)oc7c(F)c6C5)CC4)OC3=O)nc2N1 (stereo partly drawn) [Example 142, 6-[8-[[8-Fluoro-2-[(2S,4R)-4-hydroxypyrrolidin-2-yl]-6,7-dihydro-5H-cyclopenta[f][1,3]benzoxazol-6-yl]methyl]-2-oxo-1-oxa-3,8-diazaspiro[4.5]decan-3-yl]-4H-pyrazino[2,3-b][1,4]oxazin-3-one] |

Same assay, conditions: strain Escherichia coli ATCC 25922, 18-24 hours at 35±2° C., lowest concentration for complete growth inhibition (no visible growth), dihydrochloride

| SMILES | Escherichia coli growth inhibition MIC |
| --- | --- |
| NCCn1nc2cc(F)c3c(c2n1)CC(CN1CCC2(CC1)CN(c1ccc4c(n1)NC(=O)CO4)C(=O)O2)C3 (single isomer, unassigned) [Example 171, 6-[2-Oxo-8-[[2-(2-aminoethyl)-5-fluoro-7,8-dihydro-6H-cyclopenta[e]benzotriazol-7-yl]methyl]-1-oxa-3,8-diazaspiro[4.5]decan-3-yl]-4H-pyrido[3,2-b][1,4]oxazin-3-one dihydrochloride] | ≤0.06 µg/mL |
